# Data reported in US11033641B2, “Radiolabelled mGluR2/3 pet ligands” (Janssen Pharmaceutica NV, priority 2015, dated 2021).
# Test: Ex-vivo biodistribution in SD rats
# Parameters: species or system Sprague Dawley rats
# Description: Sprague-Dawley rats obtained from Harlan (the Netherlands), were housed in groups of four to six per cage until treatment. They were kept at a constant temperature of 21° C. and at a 12-h light/dark cycle, in which lights were switched on at 8:00 a.m. Animals had unrestricted access to food (Teklad Global 16% Protein Rodent Diet, Harlan, Madison, Wis., USA) and water. All animal experiments were performed in compliance with Belgium laws on animal experimentation and after approval by the local animal ethics committee.
# (§1) The biodistribution of [^18F]-1 was determined at 2, 10, 30 and 60 min, after injection in Sprague Dawley (SD) rats (n=3 per time point) while for [^18F]-2 the 30 min time point was not performed. Rats were injected intravenously with 0.7-1.1 MBq via a tail vein and euthanized at the time points indicated above, under isoflurane anesthesia. All tissues were dissected, weighed and counted for radioactivity in a gamma counter.
# as §1, with “Dawley” for “Dawley (SD)”, “point).” for “point) while for [^18F]-2 the 30 min time point was not performed.”
structure (smiles),measurement,setting,value
C[C@H]1CN(c2ccc(C(F)(F)F)cc2)C(=O)c2c(C#Cc3cnc(N)cc3C[18F])cnn21 [Compound 1],"Biodistribution, mean SUV","blood, 2 min after i.v. injection",1.12 SUV
same,"Biodistribution, mean SUV","blood, 10 min after i.v. injection",0.74 SUV
same,"Biodistribution, mean SUV","blood, 30 min after i.v. injection",0.47 SUV
same,"Biodistribution, mean SUV","blood, 60 min after i.v. injection",0.50 SUV
same,"Biodistribution, mean SUV","bone, 2 min after i.v. injection",0.39 SUV
same,"Biodistribution, mean SUV","bone, 10 min after i.v. injection",0.34 SUV
same,"Biodistribution, mean SUV","bone, 30 min after i.v. injection",0.48 SUV
same,"Biodistribution, mean SUV","bone, 60 min after i.v. injection",0.58 SUV
same,"Biodistribution, mean SUV","cerebellum, 2 min after i.v. injection",2.25 SUV
same,"Biodistribution, mean SUV","cerebellum, 10 min after i.v. injection",3.17 SUV
same,"Biodistribution, mean SUV","cerebellum, 30 min after i.v. injection",3.93 SUV
same,"Biodistribution, mean SUV","cerebellum, 60 min after i.v. injection",4.41 SUV
same,"Biodistribution, mean SUV","cerebrum + cerebellum, 2 min after i.v. injection",2.03 SUV
same,"Biodistribution, mean SUV","cerebrum + cerebellum, 10 min after i.v. injection",3.11 SUV
same,"Biodistribution, mean SUV","cerebrum + cerebellum, 30 min after i.v. injection",3.98 SUV
same,"Biodistribution, mean SUV","cerebrum + cerebellum, 60 min after i.v. injection",4.95 SUV
same,"Biodistribution, mean SUV","cortex, 2 min after i.v. injection",3.50 SUV
same,"Biodistribution, mean SUV","cortex, 10 min after i.v. injection",8.37 SUV
same,"Biodistribution, mean SUV","cortex, 30 min after i.v. injection",6.96 SUV
same,"Biodistribution, mean SUV","cortex, 60 min after i.v. injection",8.11 SUV
same,"Brain uptake, in words",ex-vivo biodistribution,very high
same,Defluorination judged from bone uptake over time,ex-vivo biodistribution,some defluorination
same,"Peripheral uptake, in words",ex-vivo biodistribution,highest uptake in the liver
same,"Biodistribution, mean SUV","heart, 2 min after i.v. injection",3.54 SUV
same,"Biodistribution, mean SUV","heart, 10 min after i.v. injection",2.11 SUV
same,"Biodistribution, mean SUV","heart, 30 min after i.v. injection",1.41 SUV
same,"Biodistribution, mean SUV","heart, 60 min after i.v. injection",1.30 SUV
same,"Biodistribution, mean SUV","hippocampus, 2 min after i.v. injection",1.53 SUV
same,"Biodistribution, mean SUV","hippocampus, 10 min after i.v. injection",2.49 SUV
same,"Biodistribution, mean SUV","hippocampus, 30 min after i.v. injection",3.10 SUV
same,"Biodistribution, mean SUV","hippocampus, 60 min after i.v. injection",3.90 SUV
same,"Biodistribution, mean SUV","kidneys, 2 min after i.v. injection",4.97 SUV
same,"Biodistribution, mean SUV","kidneys, 10 min after i.v. injection",2.58 SUV
same,"Biodistribution, mean SUV","kidneys, 30 min after i.v. injection",2.08 SUV
same,"Biodistribution, mean SUV","kidneys, 60 min after i.v. injection",2.16 SUV
same,"Biodistribution, mean SUV","liver, 2 min after i.v. injection",9.74 SUV
same,"Biodistribution, mean SUV","liver, 10 min after i.v. injection",6.38 SUV
same,"Biodistribution, mean SUV","liver, 30 min after i.v. injection",4.66 SUV
same,"Biodistribution, mean SUV","liver, 60 min after i.v. injection",4.75 SUV
same,"Biodistribution, mean SUV","lungs, 2 min after i.v. injection",2.93 SUV
same,"Biodistribution, mean SUV","lungs, 10 min after i.v. injection",1.78 SUV
same,"Biodistribution, mean SUV","lungs, 30 min after i.v. injection",1.63 SUV
same,"Biodistribution, mean SUV","lungs, 60 min after i.v. injection",1.92 SUV
same,"Biodistribution, mean SUV","muscle, 2 min after i.v. injection",0.50 SUV
same,"Biodistribution, mean SUV","muscle, 10 min after i.v. injection",0.83 SUV
same,"Biodistribution, mean SUV","muscle, 30 min after i.v. injection",0.75 SUV
same,"Biodistribution, mean SUV","muscle, 60 min after i.v. injection",0.79 SUV
same,"Biodistribution, mean SUV","pancreas, 2 min after i.v. injection",4.30 SUV
same,"Biodistribution, mean SUV","pancreas, 10 min after i.v. injection",2.36 SUV
same,"Biodistribution, mean SUV","pancreas, 30 min after i.v. injection",2.06 SUV
same,"Biodistribution, mean SUV","pancreas, 60 min after i.v. injection",2.33 SUV
same,"Biodistribution, mean SUV","pons, 2 min after i.v. injection",1.53 SUV
same,"Biodistribution, mean SUV","pons, 10 min after i.v. injection",1.73 SUV
same,"Biodistribution, mean SUV","pons, 30 min after i.v. injection",1.76 SUV
same,"Biodistribution, mean SUV","pons, 60 min after i.v. injection",1.85 SUV
same,"Biodistribution, mean SUV","rest of cerebrum, 2 min after i.v. injection",2.06 SUV
same,"Biodistribution, mean SUV","rest of cerebrum, 10 min after i.v. injection",3.34 SUV
same,"Biodistribution, mean SUV","rest of cerebrum, 30 min after i.v. injection",4.37 SUV
same,"Biodistribution, mean SUV","rest of cerebrum, 60 min after i.v. injection",5.52 SUV
same,"Biodistribution, mean SUV","spleen, 2 min after i.v. injection",2.81 SUV
same,"Biodistribution, mean SUV","spleen, 10 min after i.v. injection",1.68 SUV
same,"Biodistribution, mean SUV","spleen, 30 min after i.v. injection",1.06 SUV
same,"Biodistribution, mean SUV","spleen, 60 min after i.v. injection",1.02 SUV
same,"Biodistribution, mean SUV","striatum, 2 min after i.v. injection",1.98 SUV
same,"Biodistribution, mean SUV","striatum, 10 min after i.v. injection",3.46 SUV
same,"Biodistribution, mean SUV","striatum, 30 min after i.v. injection",4.15 SUV
same,"Biodistribution, mean SUV","striatum, 60 min after i.v. injection",7.12 SUV
same,"Biodistribution, mean SUV","whole cerebrum, 2 min after i.v. injection",1.96 SUV
same,"Biodistribution, mean SUV","whole cerebrum, 10 min after i.v. injection",3.05 SUV
same,"Biodistribution, mean SUV","whole cerebrum, 30 min after i.v. injection",3.94 SUV
same,"Biodistribution, mean SUV","whole cerebrum, 60 min after i.v. injection",5.00 SUV
